# According to patent US10894807B2 (Siemens Medical Solutions USA, Inc., priority 2011, dated 2021):
# Where a SMILES comes first, the peptide text is derived from it. [ ]: non-standard residue; d: D form. The star is where a group is joined. Boc = CC(C)(C)OC(=O)*; Nlys = NCCCCNCC(=O)O
# Target: human PSMA (Homo sapiens (Human), UniProt Q04609)
# Test: Enzymatic assay for in vitro evaluation of PSMA inhibitors (fluorescent assay of PSMA activity, NAAG substrate, OPA detection of glutamate)
# Format: biochemical
# Settings: for PSMA Blkg % (10 μM): compound at 10 μM
# Protocol: Enzymatic Assay for In Vitro Evaluation of PSMA Inhibitors
# The inhibitory activity of all compounds was determined using a fluorescent assay of human PSMA activity. The enzyme used in the assay was purchased from R&D Systems and stored at −80° C. The PSMA activity was assayed in a two-step process. In the first step, aliquots of enzyme (0.2 μg/mL) were incubated for 1 h at 37° C. in 50 mM HEPES, 0.1 M NaCl, pH 7.5, in the presence of 20 μM NAAG and the given inhibitor, in a volume of 250 μL, to allow for the accumulation of glutamate produced in the PSMA reaction. In the second step, the amount of accumulated glutamate was measured using the OPA reaction, and the fluorescence was read with a SpectraMax fluorescent plate reader using excitation at 330 nm and emission at 450 nm. The final Ki values for each inhibitor were calculated from the respective IC50 values using the Cheng and Prusoff equation.
# human PSMA, sequence (Q04609 whole entry): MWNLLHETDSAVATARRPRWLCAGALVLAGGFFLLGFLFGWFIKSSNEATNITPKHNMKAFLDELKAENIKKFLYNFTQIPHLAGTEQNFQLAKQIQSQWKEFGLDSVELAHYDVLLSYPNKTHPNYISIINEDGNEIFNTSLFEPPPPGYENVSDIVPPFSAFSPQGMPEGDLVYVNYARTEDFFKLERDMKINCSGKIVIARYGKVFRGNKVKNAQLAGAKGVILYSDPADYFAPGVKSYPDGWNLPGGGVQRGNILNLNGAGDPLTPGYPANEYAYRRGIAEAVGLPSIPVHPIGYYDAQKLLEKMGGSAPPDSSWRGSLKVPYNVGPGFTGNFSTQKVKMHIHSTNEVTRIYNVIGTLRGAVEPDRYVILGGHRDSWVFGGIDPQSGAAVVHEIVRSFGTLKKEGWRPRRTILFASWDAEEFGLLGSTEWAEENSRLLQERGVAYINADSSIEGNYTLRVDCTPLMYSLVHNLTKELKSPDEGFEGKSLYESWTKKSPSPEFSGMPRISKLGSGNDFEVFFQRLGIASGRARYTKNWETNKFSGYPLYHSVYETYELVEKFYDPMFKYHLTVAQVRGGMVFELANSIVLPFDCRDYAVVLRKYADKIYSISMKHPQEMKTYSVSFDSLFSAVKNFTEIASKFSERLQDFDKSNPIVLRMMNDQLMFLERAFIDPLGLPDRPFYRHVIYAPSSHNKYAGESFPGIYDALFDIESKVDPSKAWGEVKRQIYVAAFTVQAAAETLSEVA
Compound,PSMA Blkg % (10 μM),Ki
"Cc1ccc(-c2cn(CC(=O)N[C@@H](CC(=O)N[C@@H](CCC(=O)O)C(=O)O)C(=O)O)nn2)cc1 [P016, (S)-2-((S)-3-Carboxy-3-(2-(4-(p-tolyl)-1H-1,2,3-triazol-1-yl)acetamido)-propanamido)pentanedioic Acid]",12%,
"O=C(O)CCN(CC(=O)O)NC(=O)NC(CSCc1ccccc1)C(=O)O (stereo not shown) [P017, 3-(Benzylthio)-2-(2-(2-carboxyethyl)-2-(carboxymethyl)-hydrazinecarboxamido)propanoic Acid]",0%,
"CN(C(=O)N[C@@H](CCC(=O)O)C(=O)O)[C@@H](CCCCNC(=O)OCc1ccccc1)C(=O)O [P018, (9S,13S)-10-Methyl-3,11-dioxo-1-phenyl-2-oxa-4,10,12-triazapentadecane-9,13,15-tricarboxylic Acid]",99%,15.6 nM
"CN(C(=O)N[C@@H](CCCCNC(=O)OCc1ccccc1)C(=O)O)[C@@H](CCC(=O)O)C(=O)O [P019, (9S,13S)-12-Methyl-3,11-dioxo-1-phenyl-2-oxa-4,10,12-triazapentadecane-9,13,15-tricarboxylic Acid]",97%,37.5 nM
"O=C(O)CC[C@H](NC(=O)C[C@H](NC(=O)Cn1cc(CCCF)nn1)C(=O)O)C(=O)O [P020, (S)-2-((S)-3-Carboxy-3-(2-(4-(3-fluoropropyl)-1H-1,2,3-triazol-1-yl)acetamido)-propanamido)pentanedioic Acid]",0%,
"O=C(O)CC[C@H](NC(=O)N(CC(=O)O)NC(=O)OCc1ccccc1)C(=O)O [P021, (S)-2-(2-(Benzyloxycarbonyl)-1-(carboxymethyl)hydrazinecarboxamido) pentanedioic Acid]",0%,
"O=C(O)CC[C@H](NC(=O)NCC(=O)O)C(=O)O [P022, (S)-2-(3-(Carboxymethyl)ureido)pentanedioic Acid]",77%,
"[N-]=[N+]=NCCCC(=O)N[C@@H](CC(=O)N[C@@H](CCC(=O)O)C(=O)O)C(=O)O [P023, (S)-2-((S)-3-(4-Azidobutanamido)-3-carboxypropanamido)pentanedioic Acid]",24%,
"C[C@@H](C(=O)O)N(C)C(=O)N[C@@H](CCC(=O)O)C(=O)O [P024, (S)-2-(3-((S)-1-carboxyethyl)-3-methylureido)pentanedioic Acid]",6%,
"C[C@H](NC(=O)N[C@@H](CCC(=O)O)C(=O)O)C(=O)O [P025, (S)-2-(3-((S)-1-Carboxyethyl)ureido)pentanedioic Acid]",92%,
"O=C(O)CCNC(=O)N[C@@H](CCC(=O)O)C(=O)O [P026, (S)-2-(3-(2-Carboxyethyl)ureido)pentanedioic Acid]",2%,
"O=C(O)CC[C@H](NC(=O)OCC(=O)O)C(=O)O [P027, (S)-2-(((Carboxymethoxy)carbonyl)amino)pentanedioic Acid]",31%,
"O=C(O)CN(CC(=O)O)CC(=O)N[C@H](CSCc1ccccc1)C(=O)O [P028, (S)-2,2′-((2-((2-(Benzylthio)-1-carboxyethyl)amino)-2-oxoethyl)azanediyl)diacetic Acid]",24%,
"CN(C(=O)CCCC(=O)O)[C@@H](CCC(=O)O)C(=O)O [P029, (S)-2-(4-Carboxy-N-methylbutanamido)pentanedioic Acid]",12%,
"O=C(O)CCCC(=O)NC(CCC(=O)O)C(=O)O (stereo not shown) [P030, S)-2-(4-Carboxybutanamido)pentanedioic Acid]",2%,
"C[C@H](NC(=O)CCCN=[N+]=[N-])C(=O)N[C@@H](CCC(=O)O)C(=O)O [P031, (S)-2-((S)-2-(4-Azidobutanamido)propanamido)pentanedioic Acid]",19%,
"CN(C(=O)N[C@@H](CCC(=O)O)C(=O)O)[C@@H](CCCCNC(=O)Cn1cc(CCCF)nn1)C(=O)O [P032, (S)-2-(3-((S)-1-Carboxy-5-(2-(4-(3-fluoropropyl)-1H-1,2,3-triazol-1-yl)acetamido)pentyl)-3-methylureido)pentanedioic Acid]",50%,
"O=C(O)CC[C@H](NC(=O)N[C@@H](CCCCNC(=O)OCc1ccccc1)C(=O)O)C(=O)O [P033, (9S,13S)-3,11-Dioxo-1-phenyl-2-oxa-4,10,12-triazapentadecane-9,13,15-tricarboxylic Acid]",89%,0.78 nM
"CN(C(=O)N[C@@H](CCC(=O)O)C(=O)O)[C@@H](CCCCNC(=O)CN=[N+]=[N-])C(=O)O [P034, (S)-2-(3-((S)-5-(2-Azidoacetamido)-1-carboxypentyl)-3-methylureido)pentanedioic Acid]",70%,
"CCN(C(=O)N[C@@H](CCC(=O)O)C(=O)O)[C@@H](CCCCNC(=O)OCc1ccccc1)C(=O)O [P035, (9S, 13S)-10-Ethyl-3,11-dioxo-1-phenyl-2-oxa-4,10,12-triazapentadecane-9,13,15-tricarboxylic Acid]",0%,
"COc1ccc(-c2cn(CC(=O)NCCCC[C@@H](C(=O)O)N(C)C(=O)N[C@@H](CCC(=O)O)C(=O)O)nn2)cc1 [P036, (S)-2-(3-((S)-1-Carboxy-5-(2-(4-(4-methoxyphenyl)-1H-1,2,3-triazol-1-yl)acetamido)-pentyl)3-methylureido)pentanedioic Acid]",68%,
"O=C(O)CC[C@H](Nc1nc(C(=O)O)co1)C(=O)O [P037, (S)-2-((4-Carboxyoxazol-2-yl)amino)pentanedioic Acid]",12%,
"O=C(O)CC[C@H](NC(=O)N(O)CCCc1ccccc1)C(=O)O [P038, (S)-2-(3-Hydroxy-3-(3-phenylpropyl)ureido)pentanedioic Acid]",2%,
"CC(C)(C)OC(=O)NCCCC[C@H](NC(=O)N[C@@H](CCC(=O)O)C(=O)O)C(=O)O [P039, (10S,14S)-2,2-Dimethyl-4,12-dioxo-3-oxa-5,11,13-triazahexadecane-10,14,16-tricarboxylic Acid]",77%,
"CC(=O)N(CCCCNC(=O)OC(C)(C)C)CC(=O)N[C@@H](CCC(=O)O)C(=O)O [P040, (S)-2-(2-(N-(4-(tert-Butoxycarbonylamino)butyl)acetamido)acetamido)pentanedioic Acid] (Ac-[Nlys](Boc)-Glu-OH)",42%,
"CC(C)(C)OC(=O)NCCCCN(CC(=O)N[C@@H](CCC(=O)O)C(=O)O)C(=O)NO [P042, (S)-2-(2-(1-(4-(tert-Butoxycarbonylamino)butyl)-3-hydroxyureido)acetamido) pentanedioic Acid]",0%,
"O=C(O)CC[C@H](NC(=O)N[C@@H](CCCCNC(=O)Cn1cc(Cn2ccnc2[N+](=O)[O-])nn1)C(=O)O)C(=O)O [P043, (S)-2-(3-((S)-1-Carboxy-5-(2-(4-2((2-nitro-1H-imidazo-1-yl)-methyl)-1H-1,2,3-triazol-1-yl)acetamido)pentyl)ureido)pentanedioic Acid]",77%,
"CN(C(=O)N[C@@H](CCC(=O)O)C(=O)O)[C@@H](CCCCNC(=O)Cn1cc(Cn2ccnc2[N+](=O)[O-])nn1)C(=O)O [P044, (S)-2-(3-((S)-1-Carboxy-5-(2-(4-2((2-nitro-1H-imidazo-1-yl)methyl)-1H-1,2,3-triazol-1-yl)acetamido)pentyl)-3-methylureido)pentanedioic Acid]",62%,
